Experimental data from PubChem BioAssay (NCI).
Values joined by “and” are separate entries in the source; they are usually repeats but may differ in a detail not shown here. Equal entries are not always repeated.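 These data come from cells grown in 96-well plates and exposed to compound for 48 hours at five concentrations. GI50 = concentration required for 50% inhibition of growth. TGI: total growth inhibition.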

Legend:
Test in all cases: DTP human tumour cell line panel, 48 h
HT29 colon = tested on: HT29 colon
LOX IMVI melanoma = tested on: LOX IMVI melanoma
HCC-2998 colon = tested on: HCC-2998 colon
HOP-62 NSCLC = tested on: HOP-62 NSCLC
HCT-15 colon = tested on: HCT-15 colon
A549 NSCLC = tested on: A549 NSCLC
OVCAR-5 ovarian = tested on: OVCAR-5 ovarian
OVCAR-4 ovarian = tested on: OVCAR-4 ovarian
SR leukemia = tested on: SR leukemia
MALME-3M melanoma = tested on: MALME-3M melanoma

Row | SMILES | GI50 (HT29 colon) [µM] | TGI (HT29 colon) | GI50 (LOX IMVI melanoma) [µM] | TGI (LOX IMVI melanoma) [µM] | GI50 (HCC-2998 colon) [µM] | TGI (HCC-2998 colon) | GI50 (HOP-62 NSCLC) [µM] | TGI (HOP-62 NSCLC) [µM] | GI50 (HCT-15 colon) [µM] | TGI (HCT-15 colon) [µM] | GI50 (A549 NSCLC) [µM] | TGI (A549 NSCLC) [µM] | GI50 (OVCAR-5 ovarian) [µM] | TGI (OVCAR-5 ovarian) [µM] | GI50 (OVCAR-4 ovarian) [µM] | TGI (OVCAR-4 ovarian) [µM] | GI50 (SR leukemia) [µM] | TGI (SR leukemia) [µM] | TGI (MALME-3M melanoma) [µM] | GI50 (MALME-3M melanoma) [µM]
1 | O=C(O)c1ccccc1NCn1nc(-c2ccccc2O)oc1=S | 34.9 | > 100 µM | 19.4 | 38.9 | 33.7 | 86.7 µM | 39 | > 100 | 24.6 | 65.3 | 51 | > 100 | > 100 | > 100 |  |  |  |  |  | 
2 | O=C(Nc1ccc(-n2cc(-c3ccncc3)c(-c3ccc(Cl)c(O)c3)n2)cc1)c1cc(C(F)(F)F)cc(C(F)(F)F)c1 | 3.43 | 28.9 µM | 2.54 | 10.4 | > 100 | > 100 µM | 2.11 | 5.58 | 3.65 | > 100 | 5.43 | 22 | 21.4 | > 100 | 11.2 | 54.6 | 9.51 | > 100 |  | 
3 | COc1ccccc1/C=C(\NC(=O)c1ccccc1)c1nc2ccc(Cl)cc2[nH]1 |  | > 100 µM |  | > 100 |  |  |  |  |  | > 100 |  | 70.2 |  | > 100 |  | > 100 |  |  | > 100 | 
4 | CCOC1c2nc3ccccc3nc2-c2ccccc2N1C(C)=O (configuration not stated) |  | > 100 µM |  |  |  | > 100 µM |  | > 100 |  | > 100 |  | > 100 |  |  |  | > 100 |  | > 100 |  | 
5 | N#Cc1c(-c2ccccc2)c(-c2ccccc2)cc2c(=O)c3ccc(Cl)cc3[nH]c12 |  | > 100 µM |  |  |  | > 100 µM |  | > 100 |  | > 100 |  | > 100 |  | > 100 |  |  |  | > 100 | > 100 | 
6 | Cc1cc(OC2OC(CO)C(O)C(O)C2O)ccc1O (configuration not stated) |  | > 100 µM |  | > 100 |  | > 100 µM |  | > 100 |  | > 100 |  | > 100 |  | > 100 |  | > 100 |  |  | > 100 | 
7 | O=c1c2ccccc2nc(-c2cccc(Cl)c2)n1NC1OC(CO)C(O)C(O)C1O (configuration not stated) |  | > 100 µM |  |  |  | > 100 µM |  | > 100 |  | > 100 |  | > 100 |  | > 100 |  | > 100 |  |  | > 100 | 
8 | Cc1ccccc1Nc1cc(O)c2c(=O)cc(-c3ccccc3)oc2c1 | 3.25 | > 100 µM | 2.75 | > 100 |  |  | 3.23 | > 100 | 0.678 | > 100 | 2.11 | > 100 | > 100 | > 100 | 3.38 | > 100 | 0.395 | > 100 | > 100 | 2.43
9 | COc1cccc(-c2cc(=O)c3cc(N4CCN(C)CC4)ccc3[nH]2)c1 | 1.78 | 5.68 µM and 5.83 µM | 2.11 |  | 1.15 | 4.71 µM and 3.88 µM | 10.7 | > 100 | 2.44 |  | 6.99 | > 100 | 6.24 | > 100 | 10.6 | > 100 |  | 2.49 |  | 
10 | COc1ccc(/C=C/C(=O)c2c(-c3ccccc3)nn(C)c(=O)c2N2CCCCC2)cc1 |  | 35.9 µM |  | 38.2 |  |  |  |  |  | > 100 |  | > 100 |  |  |  |  |  |  |  | 
11 | O=C1c2cccc3c(N4CCOCC4)ccc(c23)C(=O)N1CCN1CCN(CCCCCN2CCN(CCN3C(=O)c4cccc5c(N6CCOCC6)ccc(c45)C3=O)CC2)CC1 | 58 | > 100 µM | > 100 | > 100 | 17.5 | 65.5 µM | 52.3 | > 100 | > 100 | > 100 | > 100 | > 100 | > 100 | > 100 | > 100 | > 100 |  |  | > 100 | > 100
12 | Oc1cn(-c2ccc(Cl)cc2)nc1-c1n[nH]c(=S)n1-c1ccc(F)cc1 | 43.2 | > 100 µM | 16.8 | 43 |  |  | 22.7 | 54.6 | 11.3 | > 100 | 13.2 | 56 | 32 | > 100 | 45.4 | > 100 |  | > 100 | > 100 | 25.9
13 | Cc1ccc(S(=O)(=O)Nc2ccccc2C(C)(C)C)cc1 |  | 31.9 µM |  |  |  | > 100 µM |  | 45.9 |  | 54.6 |  | > 100 |  | > 100 |  | > 100 |  |  | 89.1 | 
14 | NC1=NC(c2ccccc2Cl)c2c(n[nH]c2N)N1 (configuration not stated) |  |  | 2.98 | > 100 | 65 | > 100 µM | 80.1 | > 100 | 30.8 | > 100 | 6.96 | > 100 | 50.2 | > 100 | > 100 | > 100 |  |  | > 100 | 61.3
15 | COc1ccc(-c2cnc(-c3ccncc3-c3cccc(OC)c3)o2)cc1 | 0.033 | 10.3 µM | 0.0599 | 15.5 | 0.0799 | 14.3 µM | 0.0531 | 23.8 | 0.0473 | 14.5 | 0.0409 | 11.3 | 0.0809 | 23.5 | 0.677 | 29.2 | < 0.0152 | 13.5 |  | 
16 | Cc1ccc2ccc3c4ccccc4ccc3c2c1 | 22.9 | 77.7 µM | 19.8 | 44.3 | 20.8 | 43.2 µM | 38 | > 100 | 23.3 | 83.5 | 29.2 | > 100 | 28.8 | 95.6 | 17 | > 100 |  |  | 54.3 | 22.1
17 | Cc1ccc(-n2c3nc(=O)n(C)c(=O)c-3nc3ccccc32)c(C)c1 |  | 11.7 µM |  | 33.9 |  | 19 µM |  | > 100 |  | 22.5 |  | 20.4 |  | 32.7 |  | 24.6 |  |  | 12.9 | 
